Converted amounts (≈) assume the structure as drawn.
Assays:
Format in all cases: functional
Staphylococcus [1] = assay: Antimicrobial activity against Oxacillin-susceptible coagulase-negative Staphylococcus assessed as percent resistant isolate by broth microdilution method
Staphylococcus [2] = assay: Antimicrobial activity against Oxacillin-susceptible coagulase-negative Staphylococcus assessed as percent susceptible isolate by broth microdilution method
Staphylococcus aureus [3] = assay: Antimicrobial activity against Oxacillin-susceptible Staphylococcus aureus assessed as percent susceptible isolate by broth microdilution method
Staphylococcus [4] = assay: Antimicrobial activity against Oxacillin-resistant coagulase-negative Staphylococcus by broth microdilution method
Streptococcus [5] = assay: Antimicrobial activity against viridans group Streptococcus assessed as percent resistant isolates by broth microdilution method
Staphylococcus aureus [6] = assay: Antimicrobial activity against Oxacillin-susceptible Staphylococcus aureus by broth microdilution method
Staphylococcus [7] = assay: Antimicrobial activity against Oxacillin-resistant coagulase-negative Staphylococcus assessed as percent resistant isolate by broth microdilution method
Staphylococcus [8] = assay: Antimicrobial activity against Oxacillin-resistant coagulase-negative Staphylococcus assessed as percent susceptible isolate by broth microdilution method
Staphylococcus aureus [9] = assay: Antimicrobial activity against Oxacillin-resistant Staphylococcus aureus assessed as percent susceptible isolate by broth microdilution method
Staphylococcus aureus [10] = assay: Antimicrobial activity against Oxacillin-resistant Staphylococcus aureus by broth microdilution method
Streptococcus [11] = assay: Antimicrobial activity against viridans group Streptococcus by broth microdilution method
Streptococcus [12] = assay: Antimicrobial activity against Beta-hemolytic Streptococcus assessed as percent susceptible isolate by broth microdilution method
Streptococcus [13] = assay: Antimicrobial activity against Beta-hemolytic Streptococcus by broth microdilution method
Staphylococcus aureus [14] = assay: Antimicrobial activity against Oxacillin-resistant Staphylococcus aureus assessed as percent resistant isolate by broth microdilution method
Staphylococcus [15] = assay: Antimicrobial activity against Oxacillin-susceptible coagulase-negative Staphylococcus by broth microdilution method
Staphylococcus aureus [16] = assay: Antimicrobial activity against Oxacillin-susceptible Staphylococcus aureus assessed as percent resistant isolates by broth microdilution method
Streptococcus [17] = assay: Antimicrobial activity against viridans group Streptococcus assessed as percent susceptible isolate by broth microdilution method
Streptococcus [18] = assay: Antimicrobial activity against Beta-hemolytic Streptococcus assessed as percent resistant isolates by broth microdilution method
Enterococcus faecium [19] = assay: Antimicrobial activity against Vancomycin-nonsusceptible Enterococcus faecium assessed as percent resistant isolates by broth microdilution method
Enterococcus faecium [20] = assay: Antimicrobial activity against Vancomycin-nonsusceptible Enterococcus faecium assessed as percent susceptible isolate by broth microdilution method
Enterococcus faecium [21] = assay: Antimicrobial activity against Vancomycin-susceptible Enterococcus faecium by broth microdilution method
Enterococcus faecalis [22] = assay: Antimicrobial activity against Vancomycin-susceptible Enterococcus faecalis assessed as percent susceptible isolate by broth microdilution method
Enterococcus faecalis [23] = assay: Antimicrobial activity against Vancomycin-nonsusceptible Enterococcus faecalis assessed as percent susceptible isolate by broth microdilution method
Enterococcus faecium [24] = assay: Antimicrobial activity against Vancomycin-nonsusceptible Enterococcus faecium by broth microdilution method
Enterococcus faecalis [25] = assay: Antimicrobial activity against Vancomycin-susceptible Enterococcus faecalis assessed as percent resistant isolates by broth microdilution method
Enterococcus faecalis [26] = assay: Antimicrobial activity against Vancomycin-nonsusceptible Enterococcus faecalis by broth microdilution method
Enterococcus faecium [27] = assay: Antimicrobial activity against Vancomycin-susceptible Enterococcus faecium assessed as percent resistant isolates by broth microdilution method
Enterococcus faecium [28] = assay: Antimicrobial activity against Vancomycin-susceptible Enterococcus faecium assessed as percent susceptible isolate by broth microdilution method
Enterococcus faecalis [29] = assay: Antimicrobial activity against Vancomycin-susceptible Enterococcus faecalis by broth microdilution method
Enterococcus faecalis [30] = assay: Antimicrobial activity against Vancomycin-nonsusceptible Enterococcus faecalis assessed as percent resistant isolates by broth microdilution method

Compound | Activity (Staphylococcus [1]) [%] | Activity (Staphylococcus [2]) [%] | Activity (Staphylococcus aureus [3]) [%] | MIC50 (Staphylococcus [4]) [µg/mL] | Activity (Streptococcus [5]) [%] | MIC (Staphylococcus aureus [6]) [µg/mL] | MIC50 (Staphylococcus aureus [6]) [µg/mL] | MIC90 (Staphylococcus aureus [6]) [µg/mL] | Activity (Staphylococcus [7]) [%] | Activity (Staphylococcus [8]) [%] | MIC50 (Staphylococcus aureus [10]) [µg/mL] | MIC50 (Streptococcus [11]) [µg/mL] | MIC90 (Streptococcus [11]) [µg/mL] | Activity (Streptococcus [12]) [%] | MIC50 (Streptococcus [13]) [µg/mL] | MIC90 (Streptococcus [13]) [µg/mL] | Activity (Staphylococcus aureus [14]) [%] | MIC50 (Staphylococcus [15]) [µg/mL] | MIC90 (Staphylococcus [15]) [µg/mL] | Activity (Streptococcus [17]) [%] | further results
CC[C@H]1OC(=O)[C@H](C)[C@@H](O[C@H]2C[C@@](C)(OC)[C@@H](O)[C@H](C)O2)[C@H](C)[C@@H](O[C@@H]2O[C@H](C)C[C@H](N(C)C)[C@H]2O)[C@](C)(O)C[C@@H](C)C(=O)[C@H](C)[C@@H](O)[C@]1(C)O [ERYTHROMYCIN] | 33.6 | 66 | 78.7 | > 2 | 41.7 | ≤ 0.25 | ≤ 0.25 | > 2 | 75.4 | 24.1 | > 2 | 0.25 (≈ 0.341 µM) | 2 (≈ 2.73 µM) | 79.6 | 0.25 (≈ 0.341 µM) | 2 (≈ 2.73 µM) | 88.8 | ≤ 0.25 | > 2 | 56 | Activity (Staphylococcus aureus [9]): 10.9%; MIC (Streptococcus [11]): 0.25 µg/mL (≈ 0.341 µM); MIC (Streptococcus [13]): 0.25 µg/mL (≈ 0.341 µM); MIC (Staphylococcus [15]): ≤ 0.25 µg/mL; Activity (Staphylococcus aureus [16]): 20.7%
C[C@H]1COc2c(N3CCN(C)CC3)c(F)cc3c(=O)c(C(=O)O)cn1c23.C[C@H]1COc2c(N3CCN(C)CC3)c(F)cc3c(=O)c(C(=O)O)cn1c23.O [LEVOFLOXACIN] | 11.1 | 87.5 | 92.8 | 4 | 3.6 | ≤ 0.5 | ≤ 0.5 | ≤ 0.5 | 61.4 | 31.8 | > 4 | 1 | 2 | 98.6 | 0.5 | 1 | 80.1 | ≤ 0.5 | 4 | 95.7 | MIC90 (Staphylococcus [4]): > 4 µg/mL; Activity (Staphylococcus aureus [9]): 18.3%; Activity (Streptococcus [18]): 8.2%; MIC90 (Staphylococcus aureus [10]): > 4 µg/mL; MIC (Streptococcus [13]): 0.5 µg/mL; MIC (Staphylococcus [15]): ≤ 0.5 µg/mL; Activity (Staphylococcus aureus [16]): 6.7%
CC(=O)NC[C@H]1CN(c2ccc(N3CCOCC3)c(F)c2)C(=O)O1 [LINEZOLID] |  | 99.9 | 100 | 1 (≈ 2.96 µM) |  |  | 2 (≈ 5.93 µM) | 2 (≈ 5.93 µM) |  | 99.5 | 1 (≈ 2.96 µM) | 1 (≈ 2.96 µM) | 1 (≈ 2.96 µM) | 100 | 1 (≈ 2.96 µM) | 1 (≈ 2.96 µM) | 0.04 | 1 (≈ 2.96 µM) | 1 (≈ 2.96 µM) | 99.9 | Activity (Enterococcus faecium [19]): 1.8%; MIC90 (Staphylococcus [4]): 1 µg/mL (≈ 2.96 µM); Activity (Enterococcus faecium [20]): 97.6%; MIC50 (Enterococcus faecium [21]): 1 µg/mL (≈ 2.96 µM); MIC90 (Enterococcus faecium [21]): 2 µg/mL (≈ 5.93 µM); Activity (Streptococcus [18]): 1.3%; MIC90 (Staphylococcus aureus [10]): 2 µg/mL (≈ 5.93 µM); Activity (Enterococcus faecalis [22]): 99.8%; Activity (Enterococcus faecalis [23]): 98.6%; MIC50 (Enterococcus faecium [24]): 1 µg/mL (≈ 2.96 µM); MIC90 (Enterococcus faecium [24]): 2 µg/mL (≈ 5.93 µM); Activity (Enterococcus faecalis [25]): 0.1%; MIC50 (Enterococcus faecalis [26]): 1 µg/mL (≈ 2.96 µM); MIC90 (Enterococcus faecalis [26]): 2 µg/mL (≈ 5.93 µM); Activity (Enterococcus faecium [27]): 0.3%; Activity (Enterococcus faecium [28]): 99.6%; MIC50 (Enterococcus faecalis [29]): 1 µg/mL (≈ 2.96 µM); MIC90 (Enterococcus faecalis [29]): 2 µg/mL (≈ 5.93 µM); Activity (Enterococcus faecalis [30]): 1.4%

— ChEMBL document CHEMBL1629667, “Activities of dalbavancin against a worldwide collection of 81,673 gram-positive bacterial isolates” (2009)
